Test results from patent publication USRE48461E1, “Modulation of androgen receptor expression” (Ionis Pharmaceuticals, Inc., priority 2012, dated 2021).

What was measured:
Format in all cases: cell-based, human
[1] = tested on: LMR20 cells; experiment: Proliferation of MDV3100-resistant LMR20 cells (MTT; with R1881 or DHT); conditions: 5 days
Summary of the method: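 Cells were held in phenol red-free medium with charcoal-stripped FBS and given antisense oligonucleotides plus 1 nM R1881 or 10 nM DHT from day 1. Proliferation was read by MTT after 5 days of treatment and reported as percent inhibition against non-treated cells.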

[2] = tested on: 22RV1 cells; experiment: 22RV1 cell proliferation, ASO in combination with MDV3100 (Example 22); conditions: for Proliferation (% untreated control) in 22RV1 without MDV-3100: RNAiMAX, 3 days
Summary of the method: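 Cells seeded at 2,000 per well in 5% CSS medium for 48 h, then treated for 3 days. Proliferation read with a tetrazolium (CellTiter 96 AQueous One) kit and given as percent inhibition relative to untreated cells.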

[3] = tested on: PSA mRNA; experiment: PSA expression in C4-2 cells; conditions: 48 hrs; for Percent inhibition of PSA expression: C4-2 cells, CSS + DHT medium
Procedure: Cells were plated at 1,000 cells per well. […] After an incubation period of 48 hrs, RNA levels of AR, PSA and TMPRSS2 were measured.
Cells were plated at 2,000 cells per well and cultured in CSS media with 1 nM DHT. […] After an incubation period of 48 hrs, RNA levels of AR, PSA and TMPRSS2 were measured.

[4] = tested on: C4-2B cells; experiment: C4-2B cell proliferation (complete or CSS+DHT medium; Example 30); conditions: 5 days; for Proliferation (% untreated control): C4-2B cells
Procedure: After a treatment period of 5 days in complete medium or CSS+1 nM DHT medium, the proliferative capacity of the cancer cells was measured with using CellTiter 96® AQueous One or CellTiter-Glo® Solution Cell Proliferation kit (Promega), following the manufacturer's instructions.

[5] = tested on: AR V7 variant mRNA; experiment: AR V7 variant RNA in VCaP cells; conditions: RNAiMax, 48 hrs
[6] = tested on: VCaP cells; experiment: VCaP apoptosis (Caspase-Glo 3/7); conditions: complete medium, 72 hours; for Apoptosis (% untreated control): VCaP cells
Procedure: After a treatment period of 72 hours in complete medium, apoptosis of the cancer cells was measured with Caspase-Glo 3/7 assay (Promega). Results are presented in Tables 117 and 118 as percent apoptosis of the cells, relative to non-treated cells.

[7] = tested on: cleaved PARP; experiment: Cleaved PARP western blot in VCaP cells

TTGATTTAATGGTTGC [ISIS 560131] (MOE and (S)-cEt gapmer chemistry, further chemistry not given here) [targets intron 1]
Percent inhibition of LMR20 cell proliferation ([1]; CSS + DHT, ASO 0.04 μM): 0% | Percent inhibition of LMR20 cell proliferation ([1]; CSS + DHT, ASO 0.20 μM): 13% | Percent inhibition of LMR20 cell proliferation ([1]; CSS + DHT, ASO 1.0 μM): 57% | Percent inhibition of LMR20 cell proliferation ([1]; CSS + DHT, ASO 5.0 μM): 71% | Percent inhibition of LMR20 cell proliferation ([1]; CSS + R1881, ASO 0.04 μM): 0% | Percent inhibition of LMR20 cell proliferation ([1]; CSS + R1881, ASO 0.20 μM): 13% | Percent inhibition of LMR20 cell proliferation ([1]; CSS + R1881, ASO 1.0 μM): 55% | Percent inhibition of LMR20 cell proliferation ([1]; CSS + R1881, ASO 5.0 μM): 70% | Percent inhibition of LMR20 cell proliferation ([1]; CSS, ASO 0.04 μM): 0% | Percent inhibition of LMR20 cell proliferation ([1]; CSS, ASO 0.20 μM): 0% | Percent inhibition of LMR20 cell proliferation ([1]; CSS, ASO 1.0 μM): 9% | Percent inhibition of LMR20 cell proliferation ([1]; CSS, ASO 5.0 μM): 16% | LMR20 cell proliferation ([1]; in the presence of R1881 or DHT, 0.04-5.0 μM): significantly inhibited MDV3100-resistant prostate cancer cell proliferation in a dose dependent manner more extensively than ISIS 554221 | synergy with MDV3100 ([2]; 22RV1 cells): synergistic with MDV3100 | cell proliferation inhibited, combination ([2]; 22RV1 cells, 1.34 nM ASO in combination with 1.0 μM MDV3100): 23% | inhibited cell proliferation, ASO alone ([2]; 22RV1 cells, ASO alone at 1.34 nM): 3% | Proliferation (% untreated control) in 22RV1 cells with 0.04 μM MDV-3100 ([2]; ASO dose 0.4 nM + 0.04 μM MDV-3100): 96 % untreated control | Proliferation (% untreated control) in 22RV1 cells with 0.2 μM MDV-3100 ([2]; ASO dose 0.4 nM + 0.2 μM MDV-3100): 95 % untreated control | Proliferation (% untreated control) in 22RV1 cells with 1.0 μM MDV-3100 ([2]; ASO dose 0.4 nM + 1.0 μM MDV-3100): 96 % untreated control | Proliferation (% untreated control) in 22RV1 cells with 5.0 μM MDV-3100 ([2]; ASO dose 0.4 nM + 5.0 μM MDV-3100): 91 % untreated control | Proliferation (% untreated control) in 22RV1 without MDV-3100 ([2]; ASO dose 0.4 nM): 103 % untreated control | Proliferation (% untreated control) in 22RV1 cells with 0.04 μM MDV-3100 ([2]; ASO dose 1.34 nM + 0.04 μM MDV-3100): 80 % untreated control | Proliferation (% untreated control) in 22RV1 cells with 0.2 μM MDV-3100 ([2]; ASO dose 1.34 nM + 0.2 μM MDV-3100): 90 % untreated control | Proliferation (% untreated control) in 22RV1 cells with 1.0 μM MDV-3100 ([2]; ASO dose 1.34 nM + 1.0 μM MDV-3100): 77 % untreated control | Proliferation (% untreated control) in 22RV1 cells with 5.0 μM MDV-3100 ([2]; ASO dose 1.34 nM + 5.0 μM MDV-3100): 76 % untreated control | Proliferation (% untreated control) in 22RV1 without MDV-3100 ([2]; ASO dose 1.34 nM): 97 % untreated control | Proliferation (% untreated control) in 22RV1 cells with 0.04 μM MDV-3100 ([2]; ASO dose 4.0 nM + 0.04 μM MDV-3100): 65 % untreated control | Proliferation (% untreated control) in 22RV1 cells with 0.2 μM MDV-3100 ([2]; ASO dose 4.0 nM + 0.2 μM MDV-3100): 76 % untreated control | Proliferation (% untreated control) in 22RV1 cells with 1.0 μM MDV-3100 ([2]; ASO dose 4.0 nM + 1.0 μM MDV-3100): 63 % untreated control | Proliferation (% untreated control) in 22RV1 cells with 5.0 μM MDV-3100 ([2]; ASO dose 4.0 nM + 5.0 μM MDV-3100): 63 % untreated control | Proliferation (% untreated control) in 22RV1 without MDV-3100 ([2]; ASO dose 4.0 nM): 77 % untreated control | Proliferation (% untreated control) in 22RV1 cells with 0.04 μM MDV-3100 ([2]; ASO dose 13.4 nM + 0.04 μM MDV-3100): 39 % untreated control | Proliferation (% untreated control) in 22RV1 cells with 0.2 μM MDV-3100 ([2]; ASO dose 13.4 nM + 0.2 μM MDV-3100): 51 % untreated control | Proliferation (% untreated control) in 22RV1 cells with 1.0 μM MDV-3100 ([2]; ASO dose 13.4 nM + 1.0 μM MDV-3100): 40 % untreated control | Proliferation (% untreated control) in 22RV1 cells with 5.0 μM MDV-3100 ([2]; ASO dose 13.4 nM + 5.0 μM MDV-3100): 41 % untreated control | Proliferation (% untreated control) in 22RV1 without MDV-3100 ([2]; ASO dose 13.4 nM): 57 % untreated control | Percent inhibition of PSA expression ([3]; 0.04 μM): 10% | Percent inhibition of PSA expression ([3]; 0.2 μM): 24% | Percent inhibition of PSA expression ([3]; 1 μM): 49% | Percent inhibition of PSA expression ([3]; 5.0 μM): 74% | Percent inhibition of PSA expression in C4-2 cells cultured in complete medium ([3]; 0.04 μM): 48% | Percent inhibition of PSA expression in C4-2 cells cultured in complete medium ([3]; 0.2 μM): 78% | Percent inhibition of PSA expression in C4-2 cells cultured in complete medium ([3]; 1 μM): 88% | Percent inhibition of PSA expression in C4-2 cells cultured in complete medium ([3]; 5.0 μM): 89% | Proliferation (% untreated control) ([4]; CSS + DHT medium, 0.04 μM): 111 % untreated control | Proliferation (% untreated control) ([4]; CSS + DHT medium, 0.2 μM): 75 % untreated control | Proliferation (% untreated control) ([4]; CSS + DHT medium, 1 μM): 49 % untreated control | Proliferation (% untreated control) ([4]; CSS + DHT medium, 5.0 μM): 40 % untreated control | Proliferation (% untreated control) ([4]; complete medium, 0.04 μM): 93 % untreated control | Proliferation (% untreated control) ([4]; complete medium, 0.2 μM): 50 % untreated control | Proliferation (% untreated control) ([4]; complete medium, 1 μM): 50 % untreated control | Proliferation (% untreated control) ([4]; complete medium, 5.0 μM): 41 % untreated control | proliferation of C4-2B cells ([4]; complete medium or CSS+1 nM DHT): reduced proliferation of the cells in a dose dependent compared to the control | Percent inhibition of AR V7 variant ([5]; CSS + DHT medium, 1.34 nM): 27% | Percent inhibition of AR V7 variant ([5]; CSS + DHT medium, 4.0 nM): 31% | Percent inhibition of AR V7 variant ([5]; CSS + DHT medium, 13.4 nM): 39% | Percent inhibition of AR V7 variant ([5]; CSS + DHT medium, 40 nM): 41% | Percent inhibition of AR V7 variant ([5]; complete medium, 1.34 nM): 0% | Percent inhibition of AR V7 variant ([5]; complete medium, 4.0 nM): 57% | Percent inhibition of AR V7 variant ([5]; complete medium, 13.4 nM): 78% | Percent inhibition of AR V7 variant ([5]; complete medium, 40 nM): 84% | Apoptosis (% untreated control) ([6]; 1.34 nM): 189 % untreated control | Apoptosis (% untreated control) ([6]; 4.0 nM): 253 % untreated control | Apoptosis (% untreated control) ([6]; 13.4 nM): 356 % untreated control | Apoptosis (% untreated control) ([6]; 40 nM): 262 % untreated control | apoptosis of VCaP cells [6]: increased apoptosis of the cells in a dose dependent compared to the control | cleaved PARP levels (western blot) [7]: increased in a dose-dependent manner
